Values joined by “and” are separate entries in the source; they are usually repeats but may differ in a detail not shown here. Equal entries are not always repeated. Toxic doses and inconclusive results are not listed. Rule as the data show it: active = T/C of 150% or more; inactive = T/C below 125%.
Tested on: L1210 leukemia ip in BDF1 mice, survival T/C
Assay: NCI In Vivo Anticancer Drug Screen. Data for tumor model L1210 Leukemia (intraperitoneal) in B6D2F1 (BDF1) mice
Settings: endpoint: mean survival time, higher = longer survival
How it was run: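 Tumor cells were implanted, animals were treated, and survival was followed. The result divides the treated measurement by the vehicle-control measurement.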

[1] = dose: 6.25 mg/kg/injection, schedule: Q01DX009 (ip), vehicle: saline with Tween-80
[2] = dose: 12.5 mg/kg/injection, schedule: Q01DX009 (ip), vehicle: saline with Tween-80
[3] = dose: 25.0 mg/kg/injection, schedule: Q01DX009 (ip), vehicle: saline with Tween-80
[4] = dose: 50.0 mg/kg/injection, schedule: Q01DX009 (ip), vehicle: saline with Tween-80
[5] = dose: 100.0 mg/kg/injection, schedule: Q01DX009 (ip), vehicle: saline with Tween-80
[6] = dose: 100.0 mg/kg/injection, schedule: Q04DX003 (ip), vehicle: saline with Tween-80
[7] = dose: 200.0 mg/kg/injection, schedule: Q04DX003 (ip), vehicle: saline with Tween-80
[8] = dose: 100.0 mg/kg/injection, schedule: Q01DX009 (ip), vehicle: Klucel (hydroxypropylcellulose) (HPC)
[9] = dose: 100.0 mg/kg/injection, schedule: Q04DX003 (ip), vehicle: Klucel (hydroxypropylcellulose) (HPC)
[10] = dose: 200.0 mg/kg/injection, schedule: Q04DX003 (ip), vehicle: Klucel (hydroxypropylcellulose) (HPC)
[11] = dose: 400.0 mg/kg/injection, schedule: Q04DX003 (ip), vehicle: Klucel (hydroxypropylcellulose) (HPC)
[12] = dose: 100.0 mg/kg/injection, schedule: Q01DX001 (ip), vehicle: Klucel (hydroxypropylcellulose) (HPC)
[13] = dose: 50.0 mg/kg/injection, schedule: Q01DX001 (ip), vehicle: carboxymethylcellulose (CMC)
[14] = dose: 100.0 mg/kg/injection, schedule: Q01DX001 (ip), vehicle: carboxymethylcellulose (CMC)
[15] = dose: 200.0 mg/kg/injection, schedule: Q01DX001 (ip), vehicle: carboxymethylcellulose (CMC)
[16] = dose: 400.0 mg/kg/injection, schedule: Q01DX001 (ip), vehicle: carboxymethylcellulose (CMC)
[17] = dose: 25.0 mg/kg/injection, schedule: Q04DX003 (ip), vehicle: saline
[18] = dose: 50.0 mg/kg/injection, schedule: Q04DX003 (ip), vehicle: saline

Measured: T/C

COc1cccc(NC(=O)Nc2ccccc2C(F)(F)F)c1
inactive: [1] 92 % of control | [2] 92 % of control | [3] 90 % of control | [4] 90 % of control | [5] 94 % of control

O=C(O)c1ccccc1Oc1ccccc1
inactive: dose: 100.0 mg/kg/injection, schedule: Q01DX001 (ip), vehicle: saline with Tween-80 94 % of control | dose: 200.0 mg/kg/injection, schedule: Q01DX001 (ip), vehicle: saline with Tween-80 91 % of control | dose: 400.0 mg/kg/injection, schedule: Q01DX001 (ip), vehicle: saline with Tween-80 91 % of control

C1=COC(/C=N/Nc2nnc(N/N=C/C3CCC=CO3)c3ccccc23)CC1 (centres undefined)
inactive: dose: 5.0 mg/kg/injection, schedule: Q01DX001 (ip), vehicle: saline 98 % of control | dose: 10.0 mg/kg/injection, schedule: Q01DX001 (ip), vehicle: saline 111 % of control | dose: 20.0 mg/kg/injection, schedule: Q01DX001 (ip), vehicle: saline 96 % of control | dose: 40.0 mg/kg/injection, schedule: Q01DX001 (ip), vehicle: saline 102 % of control

CC(C)(C)N1CCC1CN (centres undefined)
inactive: dose: 75.0 mg/kg/injection, schedule: Q01DX001 (ip), vehicle: saline 104 % of control | dose: 150.0 mg/kg/injection, schedule: Q01DX001 (ip), vehicle: saline 102 % of control | dose: 300.0 mg/kg/injection, schedule: Q01DX001 (ip), vehicle: saline 102 % of control

CC(CC(C)(C)C)OS(=O)(=O)c1ccc(Br)cc1 (centres undefined)
inactive: [6] 98 % of control | [7] 101 % of control | dose: 400.0 mg/kg/injection, schedule: Q04DX003 (ip), vehicle: saline with Tween-80 92 % of control

OCCNc1nc2ccc(Br)cc2c2ccccc12
inactive: [8] 87 % of control | [9] 93 % of control | [10] 93 % of control | [11] 106 % of control

C1CCC2[N-]CC3CCCCC3[N-]CC3CCCCC3[N-]CC3CCCCC3[N-]CC2C1.[Cu] (centres undefined)
inactive: dose: 20.0 mg/kg/injection, schedule: Q01DX001 (ip), vehicle: Klucel (hydroxypropylcellulose) (HPC) 110 % of control | dose: 40.0 mg/kg/injection, schedule: Q01DX001 (ip), vehicle: Klucel (hydroxypropylcellulose) (HPC) 117 % of control | [12] 116 % of control

CCCCC1C(=O)OC(C(C)C(O)CCCN=C(N)N)C(C)C=C(C)CCCCC(O)CC(O)CC(O)CC(O)CC(O)C(OC2OC(CO)C(O)C2O)C=C(C)C(O)CCCC(O)CCCC(O)CCC(C)C1O (centres undefined)
inactive: dose: 0.71 mg/kg/injection, schedule: Q01DX Z (ip), vehicle: carboxymethylcellulose (CMC) 96 % of control

O=C(O)C(CO)NS(=O)(=O)Cc1ccccc1 (centres undefined)
inactive: dose: 100.0 mg/kg/injection, schedule: Q01DX001 (ip), vehicle: other 104 % of control | dose: 200.0 mg/kg/injection, schedule: Q01DX001 (ip), vehicle: other 96 % of control | dose: 400.0 mg/kg/injection, schedule: Q01DX001 (ip), vehicle: other 96 % of control

O=[N+]([O-])c1ccc(/C=N/Nc2nnc(N/N=C/c3ccc([N+](=O)[O-])cc3)c3ccccc23)cc1
inactive: [13] 93 % of control | [14] 101 % of control | [15] 93 % of control | [16] 98 % of control

Cc1cc([N+](=O)[O-])cc([N+](=O)[O-])c1OC(=O)c1ccc(N=C(N)N)cc1
inactive: [17] 103 % of control | dose: 50.0 mg/kg/injection, schedule: Q01DX009 (ip), vehicle: saline 102 % of control | [18] 97 % of control | dose: 100.0 mg/kg/injection, schedule: Q01DX009 (ip), vehicle: saline 94 % of control and 91 % of control | dose: 100.0 mg/kg/injection, schedule: Q04DX003 (ip), vehicle: saline 96 % of control and 92 % of control

CC(C(=O)O)S(=O)(=O)Cc1ccccc1 (centres undefined)
inactive: dose: 100.0 mg/kg/injection, schedule: Q01DX001 (ip), vehicle: saline 94 % of control | dose: 200.0 mg/kg/injection, schedule: Q01DX001 (ip), vehicle: saline 97 % of control | dose: 400.0 mg/kg/injection, schedule: Q01DX001 (ip), vehicle: saline 100 % of control

COc1ccc(S(=O)(=O)NC(=O)NC(=O)C=C(C)C)cc1
inactive: dose: 50.0 mg/kg/injection, schedule: Q01DX009 (ip), vehicle: Klucel (hydroxypropylcellulose) (HPC) 98 % of control | [8] 104 % of control | [9] 102 % of control | dose: 200.0 mg/kg/injection, schedule: Q01DX009 (ip), vehicle: Klucel (hydroxypropylcellulose) (HPC) 96 % of control | [10] 98 % of control | [11] 101 % of control

CCOC(=O)C(=O)CC1CCCCC1
inactive: [4] 92 % of control | [5] 100 % of control | dose: 200.0 mg/kg/injection, schedule: Q01DX009 (ip), vehicle: saline with Tween-80 100 % of control

COC1=NS(=O)(=O)C2CCCCCCC2O1 (centres undefined)
inactive: dose: 25.0 mg/kg/injection, schedule: Q01DX001 (ip), vehicle: Klucel (hydroxypropylcellulose) (HPC) 102 % of control | dose: 25.0 mg/kg/injection, schedule: Q04DX003 (ip), vehicle: Klucel (hydroxypropylcellulose) (HPC) 92 % of control | dose: 50.0 mg/kg/injection, schedule: Q01DX001 (ip), vehicle: Klucel (hydroxypropylcellulose) (HPC) 94 % of control | dose: 50.0 mg/kg/injection, schedule: Q04DX003 (ip), vehicle: Klucel (hydroxypropylcellulose) (HPC) 95 % of control | [12] 94 % of control | [9] 95 % of control

CCCCOP(=O)(N1CC1CC)N1CC1CC (centres undefined)
inactive: dose: 6.25 mg/kg/injection, schedule: Q01DX009 (ip), vehicle: other 99 % of control | dose: 6.25 mg/kg/injection, schedule: Q04DX003 (ip), vehicle: other 95 % of control | dose: 12.5 mg/kg/injection, schedule: Q01DX009 (ip), vehicle: other 95 % of control | dose: 12.5 mg/kg/injection, schedule: Q04DX003 (ip), vehicle: other 97 % of control | dose: 25.0 mg/kg/injection, schedule: Q01DX009 (ip), vehicle: other 92 % of control | dose: 25.0 mg/kg/injection, schedule: Q04DX003 (ip), vehicle: other 92 % of control | dose: 50.0 mg/kg/injection, schedule: Q04DX003 (ip), vehicle: other 94 % of control | dose: 100.0 mg/kg/injection, schedule: Q04DX003 (ip), vehicle: other 95 % of control

O=C(O)Cc1cc([N+](=O)[O-])c(O)c([N+](=O)[O-])c1
inactive: dose: 100.0 mg/kg/injection, schedule: Q01DX009 (ip), vehicle: saline sonified 101 % of control | [9] 95 % of control | dose: 200.0 mg/kg/injection, schedule: Q01DX009 (ip), vehicle: saline sonified 102 % of control | [10] 88 % of control | dose: 400.0 mg/kg/injection, schedule: Q01DX009 (ip), vehicle: saline sonified 102 % of control | [11] 93 % of control

NC(c1ccccc1)C1C(c2ccccc2)N1C1CCCCC1 (centres undefined)
inactive: [9] 95 % of control | [10] 86 % of control | [11] 98 % of control

CS(=O)(=O)ON1C(=O)c2ccccc2C1=O
inactive: [1] 94 % of control | [2] 98 % of control | [3] 94 % of control | [17] 91 % of control | [18] 93 % of control

O=C(C=C(C(F)(F)F)C(F)(F)F)c1ccc(Cl)cc1
inactive: dose: 3.13 mg/kg/injection, schedule: Q01DX009 (ip), vehicle: saline with Tween-80 101 % of control | [1] 97 % of control | [2] 100 % of control | [3] 97 % of control and 101 % of control | dose: 50.0 mg/kg/injection, schedule: Q04DX003 (ip), vehicle: saline with Tween-80 91 % of control | [6] 86 % of control | [7] 86 % of control

CCCC(C)C(O)C(C)C (centres undefined)
inactive: [13] 93 % of control | [14] 95 % of control | [15] 95 % of control | [16] 93 % of control

OCC1OC(n2ncc3c(=S)nc[nH]c32)C(O)C1O (centres undefined)
inactive: dose: 12.5 mg/kg/injection, schedule: Q01DX005 (ip), vehicle: other 103 % of control | dose: 25.0 mg/kg/injection, schedule: Q01DX005 (ip), vehicle: other 95 % of control | dose: 50.0 mg/kg/injection, schedule: Q01DX005 (ip), vehicle: other 97 % of control | dose: 100.0 mg/kg/injection, schedule: Q01DX005 (ip), vehicle: other 98 % of control | dose: 200.0 mg/kg/injection, schedule: Q01DX005 (ip), vehicle: other 98 % of control

Reference: PubChem BioAssay AID248 (DTP/NCI, 2004)
